Assays:
JAK1 = JAK1 (Homo sapiens (Human), UniProt P23458); test: Biochemical JAK kinase assay (LanthaScreen), JAK1; conditions: for Ki: read-out: JAK1 pKi (converted)
How it was run: (§1)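 LanthaScreen format: phospho-STAT1 (pTyr701) detected with 2 nM Tb antibody after 10 mM EDTA quench. Kinase step used Km-level ATP and 200 nM STAT1 peptide, 1 h at ambient after 1 h pre-incubation. Inhibition fitted to IC50, reported as pKi.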

JAK2 = JAK2 (Homo sapiens (Human), UniProt O60674); test: Biochemical JAK kinase assay (LanthaScreen), JAK2; conditions: for Ki: read-out: JAK2 pKi (converted)
Chain of JAK2 (O60674 whole entry): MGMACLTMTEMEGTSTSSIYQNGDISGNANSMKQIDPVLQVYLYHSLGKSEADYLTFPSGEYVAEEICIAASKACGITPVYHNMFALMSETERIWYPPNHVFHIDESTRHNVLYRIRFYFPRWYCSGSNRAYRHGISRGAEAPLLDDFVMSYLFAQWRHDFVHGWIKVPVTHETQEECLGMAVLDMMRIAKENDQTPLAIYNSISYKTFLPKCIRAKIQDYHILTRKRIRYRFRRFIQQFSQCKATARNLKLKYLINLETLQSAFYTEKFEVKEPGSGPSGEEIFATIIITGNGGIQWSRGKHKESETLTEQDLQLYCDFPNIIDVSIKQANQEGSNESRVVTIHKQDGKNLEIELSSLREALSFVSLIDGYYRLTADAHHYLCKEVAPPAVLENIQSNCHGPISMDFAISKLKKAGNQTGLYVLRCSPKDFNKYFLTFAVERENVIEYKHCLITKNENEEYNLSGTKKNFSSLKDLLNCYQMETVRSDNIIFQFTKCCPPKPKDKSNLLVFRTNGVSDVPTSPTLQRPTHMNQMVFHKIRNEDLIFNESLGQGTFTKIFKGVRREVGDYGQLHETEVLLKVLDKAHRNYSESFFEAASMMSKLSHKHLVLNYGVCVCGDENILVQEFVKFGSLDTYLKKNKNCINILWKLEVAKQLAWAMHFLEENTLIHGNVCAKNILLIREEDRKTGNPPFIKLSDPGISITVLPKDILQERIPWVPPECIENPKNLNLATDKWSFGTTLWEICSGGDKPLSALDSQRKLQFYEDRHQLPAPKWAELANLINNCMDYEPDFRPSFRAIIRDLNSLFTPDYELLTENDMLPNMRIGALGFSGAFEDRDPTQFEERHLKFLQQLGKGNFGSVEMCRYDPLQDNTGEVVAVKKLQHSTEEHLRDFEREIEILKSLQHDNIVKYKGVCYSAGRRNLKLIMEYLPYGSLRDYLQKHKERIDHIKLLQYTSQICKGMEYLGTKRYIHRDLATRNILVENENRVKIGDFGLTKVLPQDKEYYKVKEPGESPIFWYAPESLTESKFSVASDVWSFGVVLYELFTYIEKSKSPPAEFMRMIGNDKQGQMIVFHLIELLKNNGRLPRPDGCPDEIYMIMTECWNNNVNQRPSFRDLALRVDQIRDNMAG
How it was run: as §1

JAK3 = JAK3 (Homo sapiens (Human), UniProt P52333); test: Biochemical JAK kinase assay (LanthaScreen), JAK3; conditions: read-out: JAK3 pKi (converted)
Chain of JAK3 (P52333 whole entry): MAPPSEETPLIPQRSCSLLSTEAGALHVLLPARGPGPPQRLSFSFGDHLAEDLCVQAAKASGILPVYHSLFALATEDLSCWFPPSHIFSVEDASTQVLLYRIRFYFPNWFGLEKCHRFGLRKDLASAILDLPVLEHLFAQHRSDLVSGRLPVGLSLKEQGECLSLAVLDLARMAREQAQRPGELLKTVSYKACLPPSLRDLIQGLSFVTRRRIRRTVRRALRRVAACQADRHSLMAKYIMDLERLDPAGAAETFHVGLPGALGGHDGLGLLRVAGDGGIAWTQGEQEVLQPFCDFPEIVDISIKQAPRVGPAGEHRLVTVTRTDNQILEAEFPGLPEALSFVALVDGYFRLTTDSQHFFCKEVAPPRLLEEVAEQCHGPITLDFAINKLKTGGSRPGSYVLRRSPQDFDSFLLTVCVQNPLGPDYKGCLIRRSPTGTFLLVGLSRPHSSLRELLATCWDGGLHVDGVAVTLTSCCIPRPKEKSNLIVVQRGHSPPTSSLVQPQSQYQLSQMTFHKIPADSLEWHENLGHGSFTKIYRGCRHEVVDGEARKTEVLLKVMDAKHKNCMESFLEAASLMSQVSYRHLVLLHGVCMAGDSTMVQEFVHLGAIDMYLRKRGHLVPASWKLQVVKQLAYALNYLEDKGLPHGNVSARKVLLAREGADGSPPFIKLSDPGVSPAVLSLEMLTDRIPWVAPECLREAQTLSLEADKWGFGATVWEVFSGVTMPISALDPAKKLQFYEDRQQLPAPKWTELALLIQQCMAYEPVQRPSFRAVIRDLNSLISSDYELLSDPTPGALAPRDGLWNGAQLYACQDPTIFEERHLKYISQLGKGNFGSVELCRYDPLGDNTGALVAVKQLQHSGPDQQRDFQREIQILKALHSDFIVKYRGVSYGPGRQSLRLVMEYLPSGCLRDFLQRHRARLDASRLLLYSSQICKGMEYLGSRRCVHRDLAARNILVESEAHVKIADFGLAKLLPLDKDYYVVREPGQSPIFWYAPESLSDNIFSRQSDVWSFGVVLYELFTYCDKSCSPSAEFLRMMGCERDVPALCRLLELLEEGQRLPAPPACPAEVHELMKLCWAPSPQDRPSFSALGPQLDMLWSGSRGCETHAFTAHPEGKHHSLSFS
How it was run: as §1

TYK2 = TYK2 (Homo sapiens (Human), UniProt P29597); test: Biochemical JAK kinase assay (LanthaScreen), Tyk2; conditions: read-out: Tyk2 pKi (converted)
Chain of TYK2 (P29597 whole entry): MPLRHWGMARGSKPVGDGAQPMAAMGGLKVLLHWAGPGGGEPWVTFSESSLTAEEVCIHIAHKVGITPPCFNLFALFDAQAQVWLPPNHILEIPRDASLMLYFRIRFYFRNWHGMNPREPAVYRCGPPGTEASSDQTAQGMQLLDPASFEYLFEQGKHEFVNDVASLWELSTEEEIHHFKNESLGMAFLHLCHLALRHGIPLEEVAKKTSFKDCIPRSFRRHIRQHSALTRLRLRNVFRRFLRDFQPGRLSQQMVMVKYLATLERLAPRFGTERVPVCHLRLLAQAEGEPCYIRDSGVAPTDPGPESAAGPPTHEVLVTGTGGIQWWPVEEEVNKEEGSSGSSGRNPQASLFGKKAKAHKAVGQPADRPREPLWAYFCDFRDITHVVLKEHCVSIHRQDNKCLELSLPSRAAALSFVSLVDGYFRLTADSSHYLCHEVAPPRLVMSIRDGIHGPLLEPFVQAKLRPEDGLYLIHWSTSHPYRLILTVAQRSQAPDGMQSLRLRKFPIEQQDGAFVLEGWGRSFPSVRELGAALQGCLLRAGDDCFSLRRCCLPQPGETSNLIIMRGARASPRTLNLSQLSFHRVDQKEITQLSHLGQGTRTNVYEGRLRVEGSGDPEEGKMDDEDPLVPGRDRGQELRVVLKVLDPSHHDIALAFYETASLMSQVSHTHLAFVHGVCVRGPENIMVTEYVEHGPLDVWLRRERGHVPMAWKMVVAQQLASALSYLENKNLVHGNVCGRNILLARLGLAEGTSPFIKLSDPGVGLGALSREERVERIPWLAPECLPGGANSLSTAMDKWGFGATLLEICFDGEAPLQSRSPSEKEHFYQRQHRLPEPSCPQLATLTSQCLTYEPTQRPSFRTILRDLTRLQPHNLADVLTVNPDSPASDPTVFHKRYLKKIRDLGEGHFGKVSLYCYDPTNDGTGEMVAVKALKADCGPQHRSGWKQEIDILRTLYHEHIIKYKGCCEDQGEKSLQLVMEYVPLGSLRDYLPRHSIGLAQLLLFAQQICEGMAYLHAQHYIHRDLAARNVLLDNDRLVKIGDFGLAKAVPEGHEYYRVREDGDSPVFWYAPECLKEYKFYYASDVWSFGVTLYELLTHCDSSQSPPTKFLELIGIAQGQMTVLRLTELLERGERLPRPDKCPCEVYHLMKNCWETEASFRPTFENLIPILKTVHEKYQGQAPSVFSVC
How it was run: as §1

[1] = tested on: IL-13 induced STAT6 phosphorylation in BEAS-2B human lung epithelial cells; test: Cellular JAKI potency assay (BEAS-2B); assay type: cell-based; conditions: Homo sapiens, BEAS-2B, BEAS-2B cells, read-out: BEAS2B pIC50 (converted)
How it was run: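 AlphaLISA SureFire detection of Tyr641 pSTAT6 in lysates gave IC50s (4-parameter fit, expressed as pIC50). Cells: human BEAS-2B, exposed 1 h at 37 °C to compound dose series at 0.1% DMSO, then 30 min to IL-13 added at 80 ng/mL in HEPES-buffered HBSS with BSA.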

[2] = Pharmacokinetics in plasma and lung in mouse after oral aspiration administration; assay type: in vivo; conditions: male CD1 mice; for Lung Tissue AUC(0-24) / AUC(0-t): 0.2 mg/mL, two 25 μL increments; for Lung Tissue:Plasma AUC ratio: lung AUC to plasma AUC; for AUC(0-t): mouse, inhaled or intranasal, 0.01 mg/mouse, plasma, read-out: Plasma AUC(0-24)
Experimental: Plasma and lung concentrations of test compounds were quantified and pharmacokinetic parameters were calculated in the following manner. Male CD1 mice from Charles River Laboratories were used in the pharmacokinetic studies. Test compounds were individually formulated in 20% propylene glycol in pH 4 citrate buffer at a concentration of 0.2 mg/mL. Test compounds were administered in two, 25 μL increments introduced into the trachea of each mouse by oral aspiration using a calibrated pipette once the animal was anesthetized using isoflurane. Blood samples were collected as terminal collections via cardiac puncture at 0.167, 1, 4, 8, and 24 hr post-dosing. Following […] with CO2, a direct cardiac puncture was performed while avoiding puncturing the lung and blood was immediately transferred into K2EDTA tubes and placed on wet ice. Blood samples were centrifuged (Eppendorf centrifuge, 5804R) for 4 minutes at approximately 12,000 rpm at 4° C. to collect plasma. Intact lungs were also excised from these mice using the same timepoints (0.167, 1, 4, 8, and 24 hr). Lungs were washed with sterile water to remove any blood residue and were patted dry, weighed, and homogenized in 0.1% formic acid in water at a dilution of 1:3 (lung:water, weight/volume). Plasma and lung concentrations of test compounds were determined by LC-MS/MS analysis against analytical standards constructed into a standard curve in the test matrix. The pharmacokinetic parameters of test compounds were determined by non-compartmental analysis. For concentrations below the limit of quantification, zero was used for mean calculations. Mean values were not reported if more than 50% of the samples were below the limit of quantification at a timepoint, or if more than 50% of a calculated pharmacokinetic parameter was not reportable. The area under the concentration-time curve extrapolated to infinity (AUC(0-inf)) was calculated as follows: AUC(0-inf)=AUC(0-t)+Clast/k, where AUC(0-t) is the area under the concentration-time curve from the time of dosing to the last measurable concentration calculated by the linear trapezoidal rule, Clast is the last measurable concentration, and k is the first order rate constant associated with the terminal elimination phase, estimated by linear regression of time versus log concentration. The lung-to-plasma AUC ratio was determined as the ratio of the lung AUC(0-inf) in μg*hr/g to the plasma AUC(0-inf) in μg*hr/mL.

Chain of JAK1 (P23458 whole entry): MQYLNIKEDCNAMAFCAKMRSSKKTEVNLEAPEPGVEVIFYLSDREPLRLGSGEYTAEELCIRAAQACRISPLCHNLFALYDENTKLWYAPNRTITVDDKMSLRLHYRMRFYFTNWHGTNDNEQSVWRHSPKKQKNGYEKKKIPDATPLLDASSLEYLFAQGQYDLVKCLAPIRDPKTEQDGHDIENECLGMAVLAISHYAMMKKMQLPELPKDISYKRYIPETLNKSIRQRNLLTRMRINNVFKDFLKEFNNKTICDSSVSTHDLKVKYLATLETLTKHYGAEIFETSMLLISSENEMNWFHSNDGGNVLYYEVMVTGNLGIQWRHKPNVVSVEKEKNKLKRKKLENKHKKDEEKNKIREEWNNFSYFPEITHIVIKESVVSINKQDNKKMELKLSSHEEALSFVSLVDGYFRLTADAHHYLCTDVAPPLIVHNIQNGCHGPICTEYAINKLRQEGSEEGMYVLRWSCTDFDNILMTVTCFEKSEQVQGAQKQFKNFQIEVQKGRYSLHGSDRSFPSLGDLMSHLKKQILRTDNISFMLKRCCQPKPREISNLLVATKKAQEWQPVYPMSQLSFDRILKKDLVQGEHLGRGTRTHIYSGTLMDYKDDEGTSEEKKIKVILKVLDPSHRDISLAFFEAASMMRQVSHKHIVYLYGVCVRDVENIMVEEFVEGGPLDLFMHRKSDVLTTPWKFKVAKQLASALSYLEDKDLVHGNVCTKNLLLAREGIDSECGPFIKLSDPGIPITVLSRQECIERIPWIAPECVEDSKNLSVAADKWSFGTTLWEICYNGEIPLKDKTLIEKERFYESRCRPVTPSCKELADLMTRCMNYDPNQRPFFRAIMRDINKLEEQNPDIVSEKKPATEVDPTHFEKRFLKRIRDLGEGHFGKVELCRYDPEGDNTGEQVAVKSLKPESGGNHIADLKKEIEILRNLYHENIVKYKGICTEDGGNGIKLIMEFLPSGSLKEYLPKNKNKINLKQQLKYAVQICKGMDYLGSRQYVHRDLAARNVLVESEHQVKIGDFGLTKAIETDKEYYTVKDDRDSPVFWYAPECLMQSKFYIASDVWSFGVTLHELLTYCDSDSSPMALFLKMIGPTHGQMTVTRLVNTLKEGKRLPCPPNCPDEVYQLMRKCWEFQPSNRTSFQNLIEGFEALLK

SMILES | Ki (JAK1) [nM] | Ki (JAK2) [nM] | Ki (JAK3) [nM] | Ki (TYK2) [nM] | IC50 [1] [nM] | Lung Tissue AUC(0-24) [2] | Lung Tissue:Plasma AUC ratio [2] | AUC(0-t) [2] [ng·h/mL] | JAK1 pKi (JAK1) | JAK2 pKi (JAK2)
CCc1cc(O)ccc1-c1ccc2c(-c3nc(C4=C(C)CNCC4)c[nH]3)n[nH]c2c1F [Example 227] | 0.1 to 1 | 0.1 to 1 | 1 to 10 | 1 to 10 | 10 to 31.6 | A (For the Lung Tissue AUC(0-24), A denotes a value between 100 and 200) | C (C denotes a ratio between 100 and 200) | 500 to 1000 | – | –
CCc1cc(O)ccc1-c1ccc2c(-c3nc(C4=CCN(CCCO)CC4)c[nH]3)n[nH]c2c1F [Compound 14, 3-ethyl-4-(7-fluoro-3-(4-(1-(3-hydroxypropyl)-1,2,3,6-tetrahydropyridin-4-yl)-1H-imidazol-2-yl)-1H-indazol-6-yl)phenol] | 0.1 to 1 | – | 0.1 to 1 | 1 to 10 | 10 to 31.6 | C (C denotes a value between 9 and 50) | C (C denotes a ratio between 100 and 200) | < 500 | – | –
CCc1cc(O)ccc1-c1ccc2c(-c3nc(C4=CCN(C(C)C)C4)c[nH]3)n[nH]c2c1F [Example 32] | 0.1 to 1 | 0.1 to 1 | 0.1 to 1 | 1 to 10 | 3.16 to 10 | C (C denotes a value between 9 and 50) | D (D denotes a ratio between 50 and 100) | < 500 | – | –
CCc1cc(O)ccc1-c1ccc2c(-c3nc(C4=CCNC4)c[nH]3)n[nH]c2c1 [Compound 5, 4-(3-(4-(2,5-dihydro-1H-pyrrol-3-yl)-1H-imidazol-2-yl)-1H-indazol-6-yl)-3-ethylphenol] | – | 0.1 to 1 | 0.1 to 1 | 0.1 to 1 | 3.16 to 10 | C (C denotes a value between 9 and 50) | D (D denotes a ratio between 50 and 100) | < 500 | A (A represents a pKi value ≥10 (Ki≤0.1 nM)) | –
CCc1cc(O)ccc1-c1ccc2c(-c3nc(C4=CCN(C5CCN(C)CC5)C4)c[nH]3)n[nH]c2c1F [Example 201] | 0.1 to 1 | – | 0.1 to 1 | 1 to 10 | 3.16 to 10 | A (For the Lung Tissue AUC(0-24), A denotes a value between 100 and 200) | B (B denotes a ratio between 200 and 300) | 500 to 1000 | – | A (A represents a pKi value ≥10 (Ki≤0.1 nM))
CCc1cc(O)ccc1-c1ccc2c(-c3nc(C4=CCCNC4)c[nH]3)n[nH]c2c1F [Compound 6, 3-ethyl-4-(7-fluoro-3-(4-(1,2,5,6-tetrahydropyridin-3-yl)-1H-imidazol-2-yl)-1H-indazol-6-yl)phenol] | 0.1 to 1 | 0.1 to 1 | 1 to 10 | 1 to 10 | 3.16 to 10 | B (B denotes a value between 50 and 100) | D (D denotes a ratio between 50 and 100) | 500 to 1000 | – | –
CCc1cc(O)ccc1-c1ccc2c(-c3nc(C4=CCN(C(=O)[C@@H](N)C(C)(C)O)C4)c[nH]3)n[nH]c2c1 [Example 170] | 0.1 to 1 | – | 0.1 to 1 | 0.1 to 1 | 10 to 31.6 | B (B denotes a value between 50 and 100) | C (C denotes a ratio between 100 and 200) | < 500 | – | A (A represents a pKi value ≥10 (Ki≤0.1 nM))
CCc1cc(O)ccc1-c1ccc2c(-c3nc(C4=C[C@H](CO)NC4)c[nH]3)n[nH]c2c1F [Compound 8, (R)-3-ethyl-4-(7-fluoro-3-(4-(5-(hydroxymethyl)-2,5-dihydro-1H-pyrrol-3-yl)-1H-imidazol-2-yl)-1H-indazol-6-yl)phenol] | 0.1 to 1 | – | 0.1 to 1 | 1 to 10 | 10 to 31.6 | B (B denotes a value between 50 and 100) | C (C denotes a ratio between 100 and 200) | 500 to 1000 | – | A (A represents a pKi value ≥10 (Ki≤0.1 nM))
CCc1cc(O)ccc1-c1ccc2c(-c3nc(C4=CCN(C5CN(C)C5)C4)c[nH]3)n[nH]c2c1F [Example 202] | 0.1 to 1 | – | 0.1 to 1 | 1 to 10 | 10 to 31.6 | B (B denotes a value between 50 and 100) | D (D denotes a ratio between 50 and 100) | 500 to 1000 | – | A (A represents a pKi value ≥10 (Ki≤0.1 nM))
CCc1cc(O)ccc1-c1ccc2c(-c3nc(C4=CC[C@H](C)NC4)c[nH]3)n[nH]c2c1F [Example 234] | – | 0.1 to 1 | 1 to 10 | 1 to 10 | 3.16 to 10 | B (B denotes a value between 50 and 100) | C (C denotes a ratio between 100 and 200) | < 500 | A (A represents a pKi value ≥10 (Ki≤0.1 nM)) | –
CCc1cc(O)ccc1-c1ccc2c(-c3nc(C4=C[C@@H](COC)NC4)c[nH]3)n[nH]c2c1F [Example 246] | 0.1 to 1 | 0.1 to 1 | 1 to 10 | 10 to 100 | 10 to 31.6 | C (C denotes a value between 9 and 50) | D (D denotes a ratio between 50 and 100) | < 500 | – | –
CCc1cc(O)ccc1-c1ccc2c(-c3nc(C4=CC5COCC(C4)N5)c[nH]3)n[nH]c2c1 (centres unmarked) [Compound 7, 4-(3-(4-(3-oxa-9-azabicyclo[3.3.1]non-6-en-7-yl)-1H-imidazol-2-yl)-1H-indazol-6-yl)-3-ethylphenol] | 0.1 to 1 | – | 0.1 to 1 | 1 to 10 | 10 to 31.6 | B (B denotes a value between 50 and 100) | C (C denotes a ratio between 100 and 200) | < 500 | – | A (A represents a pKi value ≥10 (Ki≤0.1 nM))
CCc1cc(O)ccc1-c1ccc2c(-c3nc(C4=CCCN(C5CCN(C)CC5)C4)c[nH]3)n[nH]c2c1 [Example 192] | 0.1 to 1 | – | 0.1 to 1 | 1 to 10 | 10 to 31.6 | A (For the Lung Tissue AUC(0-24), A denotes a value between 100 and 200) | A (For the ratio of lung exposure to plasma exposure, A denotes a ratio 300-410) | < 500 | – | A (A represents a pKi value ≥10 (Ki≤0.1 nM))
CCc1cc(O)ccc1-c1ccc2c(-c3nc(C4=CCN(CCN(C)C)CC4)c[nH]3)n[nH]c2c1F [Example 209] | 0.1 to 1 | – | 0.1 to 1 | 1 to 10 | 10 to 31.6 | – | – | – | – | A (A represents a pKi value ≥10 (Ki≤0.1 nM))
CCc1cc(O)ccc1-c1ccc2c(-c3nc(C4=CCN(C[C@@H]5COCCN5)CC4)c[nH]3)n[nH]c2c1F [Example 189] | 0.1 to 1 | 0.1 to 1 | 0.1 to 1 | 1 to 10 | 10 to 31.6 | – | – | – | – | –
CCc1cc(O)ccc1-c1ccc2c(-c3nc(C4=CCN(C5COC5)CC4)c[nH]3)n[nH]c2c1 [Example 57] | 0.1 to 1 | 0.1 to 1 | 0.1 to 1 | 1 to 10 | 10 to 31.6 | – | – | – | – | –
CCc1cc(O)ccc1-c1ccc2c(-c3nc(C4=CCCN(C5CCCN(C)C5)C4)c[nH]3)n[nH]c2c1F (centres unmarked) [Example 217] | 1 to 10 | 0.1 to 1 | 0.1 to 1 | 1 to 10 | 31.6 to 100 | – | – | – | – | –
CCc1cc(O)ccc1-c1ccc2c(-c3nc(C4=CCN(C[C@@H]5CCN5)CC4)c[nH]3)n[nH]c2c1F [Example 390] | 0.1 to 1 | – | 0.1 to 1 | 1 to 10 | 100 to 316 | – | – | – | – | A (A represents a pKi value ≥10 (Ki≤0.1 nM))
